System: PTZ induced rat model
Assay: PTZ (pentylene-tetrazole) induced convulsions, anti-convulsant activity in Wistar rats
Format: in vivo
Conditions: male Wistar rats, n=6 per group, 60 mg/kg PTZ intraperitoneally 1 hr after test item; for Straub Tail / Clonic Convulsions / Stupor / Tonic Convulsions: doses per Table 1; for Clonic Convulsions / Stupor / Tonic Convulsions: mean; for Recovery: outcome recovery or death
Description: The purpose of this study is to evaluate the effect of anti-convulsant activity of the test compound in Wistar Rats.
The systemic administration of PTZ is one of the most commonly employed methods for anti-convulsant screening. The preference has been given to this model due to its ease of performance, reliability, ease of expressing results and the shorter time-period to produce convulsions.
60 mg/kg of PTZ was injected per body weight, intraperitoneally 1 hr after the test item administration.
All animals were acclimatized for five days and seizures were induced by administering 60 mg/kg PTZ per body weight, 1 hr after test item administration. Normal control group was injected with phosphate buffer solution.
As Group 1 (Vehicle control), Group 2 served as diseased control, Group 3 was Reference standard and Group 4, Group 5 and Group 6 served as test substance. The dose was administered for short term (single day administration) or long term (14 or 21 days) after acclimatization.
The time was recorded for convulsion phase clonic, tonic and stupor after test administration. All values were expressed as MEAN±STD. The significant difference between the treatment and control group was estimated using oneway ANOVA with Dennett's test. All results of the statistical analysis were summarized in separate tables.

Compound	Straub Tail	Clonic Convulsions [s]	Stupor [s]	Tonic Convulsions [s]	Recovery
C[N+](C)(C)[C@@H](Cc1c[nH]c(=S)[nH]1)C(=O)O [L-Ergothioneine, L-ergothioneine]	Absent	4.66	70.33	8.00	Recovery
CC[C@@H](C(N)=O)N1CCCC1=O [Levetiracetam, reference compound]	Absent	3.33	56.16	5.83	Recovery
CCCCCCCCCC(=O)OCC(COC(=O)CCCCCCCCC)OC(=O)CCCCCCCCC [Tridecanoin]	Absent	5.00	74.16	7.66	Recovery
